According to patent US9457057B2, “Methods for the prevention and treatment of burn injuries and secondary complications” (The General Hospital Corporation, priority 2009, dated 2016):

What was measured:
[1] = tested on: ATP synthesis rate (reaction PCr → γATP) in hindlimb skeletal muscle; assay: In vivo 31P-NMR saturation transfer, ATP synthesis rate (reaction PCr→γATP), mouse burn model (Example 8)
Description: (§1) Materials and Methods. Male 6-week-old CD1 mice weighing 20-25 g were anesthetized by intraperitoneal (i.p.) injection of 40 mg/kg pentobarbital sodium. The left hind limb of all mice in all groups was shaved. Each burned mouse was subjected to a nonlethal scald injury of 3-5% total body surface area (TBSA) by immersing its left hind limb in 90° C. water for 3 sec.
(§2) NMR spectroscopy is described in detail in Padfield, et al., Proc Natl Acad Sci USA 102: 5368-5373 (2005). Briefly, mice were randomized into burn, burn+SS-31 peptide, control, and control+peptide groups. The SS-31 peptide (3 mg/kg) was injected intraperitoneally at 30 min prior to burn and a second injection immediately after the burn. NMR experiments were performed in a horizontal bore magnet (proton frequency 400 MHz, 21 cm diameter, Magnex Scientific) using a Bruker Avance console. A 90° pulse was optimized for detection of phosphorus spectra (repetition time 2 s, 400 averages, 4K data points). Saturation 90°-selective pulse trains (duration 36.534 ms, bandwidth 75 Hz) followed by crushing gradients were used to saturate the γ-ATP peak. The same saturation pulse train was also applied downfield of the inorganic phosphate (Pi) resonance, symmetrically to the γ-ATP resonance. T1 relaxation times of Pi and phosphocreatine (PCr) were measured using an inversion recovery pulse sequence in the presence of γ-ATP saturation. An adiabatic pulse (400 scans, sweep with 10 KHz, 4K data) was used to invert Pi and PCr, with an inversion time between 152 ms and 7651 ms.

[2] = tested on: ATP synthesis rate (Pi→γATP) in hindlimb skeletal muscle; assay: In vivo 31P-NMR saturation transfer, ATP synthesis rate (Pi→γATP), mouse burn model (Examples 8 and 10)
Description: as §1
as §2, with “An adiabatic pulse (400 scans, sweep with 10 KHz, 4K data) was used to invert Pi and PCr, with an inversion time between 152 ms and 7651 ms.” left out
Values are means±SE; ΔM/M0 is the fractional change in Pi magnetization as a result of saturation transfer; T1obs is the observed spin lattice relaxation time of Pi during γATP saturation in seconds; ATP synthesis is calculated as [Pi]×k; [Pi] is the concentration of Pi extrapolated from the baseline NMR spectrum, comparing Pi and γATP peaks and ATP concentration measured with bioluminescence assay; k is calculated as (1/T1obs)×(ΔM/M0); P-values (unpaired Student's t-test) are for comparisons between experimental and control groups; * indicates only one dose of SS-31 peptide (3 mg/kg) was injected to animals immediately after burn.

Sprague Dawley rats [3] = assay: Indirect calorimetry 6 days after burn injury, 7-day infusion (Example 7); type: in vivo, rat; conditions: III degree 30% TBSA burns, 2 mg/kg priming then 4 mg/kg/day infused 7 days
Description: (§3) Methods. Sprague Dawley rats were randomly divided into 5 groups; sham (S), sham with saline treatment (SSal), sham with SS-31 treatment (SPep), burn with saline treatment (BSal) and burn with SS-31 treatment (BPep). In burn group, the back of animal was immersed into 100° C. water for 12 seconds to produce III degree 30% TBSA burns under general anesthesia. Sham burn was produced by immersing the lukewarm water in the same manner. Both groups of animals received 40 ml/kg intraperitoneal saline injection for the resuscitation following the injury. A venous catheter was placed surgically into the right jugular vein subsequent to sham or burn injury. SS-31 (2 mg/kg) or saline was injected as priming, and infused for 7 days (4 mg/kg/day) using osmotic pump (Durect, CA). […] The indirect calorimetry was performed for 24 hours at 6 days after burn injury in a TSE Indirect Calorimetry System (TSE Co. Germany), and VO2, VCO2 and energy expenditure were recorded every six minutes. Interscapullar brown adipose tissue was collected after the indirect calorimetry, and UCP-1 expression in the brown adipose tissue was evaluated by Western blot.

caspase-3 [4] = assay: Activated caspase protein levels in liver by Western blots (Example 2); type: in vivo, mouse; conditions: C57BL mice, 30% TBSA burn, 5 mg/kg daily; day 3 and 7 post-burn
Description: (§4) Systemic inflammatory response syndrome (SIRS) and multiple organ failure (MOF) are leading causes of morbidity and mortality in severe burn patients. In this Example, the effects of the aromatic-cationic peptides of the invention on liver damage in a mouse model of burn injury were examined. Six to eight week old male C57BL mice were subjected to 30% total body surface area (TBSA) burn injury and subsequently injected daily with saline or SS-31 peptide (5 mg/kg body weight). A weight- and time-matched sham-burn group subjected to lukewarm (˜37° C.) water but otherwise treated exactly the same served as controls (FIG. 3). The liver tissues were collected 1, 3, and 7 days after burn injury treatment and used to examine apoptosis by TUNEL method, activated caspase protein levels by Western blots, and caspase activity by an enzymatic reaction assay.

apoptosis in the liver = assay: Liver apoptosis by TUNEL method after burn injury (Example 2); type: in vivo, mouse; conditions: C57BL mice, 30% TBSA burn, 5 mg/kg daily; days 1, 3, 7, effects most obvious on day 7 post-burn
Description: as §4

Sprague Dawley rats [5] = assay: Indirect calorimetry after burn injury in a rat model (Example 1); type: in vivo; conditions: 30% TBSA full thickness burn, SS-31 2 mg/kg IV q12h for three days, n = 3
Description: Sprague Dawley rats were randomized into three groups; sham-burn (SB), burn with saline treatment (B) and burn with peptide treatment (BP). Catheters were surgically placed into jugular vein and carotid artery. B and BP animals received 30% total body surface area full thickness burns by immersing the dorsal part into 100° C. water for 12 seconds with immediate fluid resuscitation. BP animals received IV injection of SS-31 (2 mg/kg every 12 h) for three days (FIG. 1). The EE of the animals were constantly monitored for 12 hours in a TSE Indirect Calorimetry System (TSE Co. Germany).

[6] = tested on: redox state of the gastrocnemius muscle; assay: Redox state of gastrocnemius muscle by nitroxide EPR after local burn (Examples 4 and 8); type: in vivo, mouse; conditions: mice
Description: A clinically relevant murine nonlethal local burn injury model was used to address whether aromatic-cationic peptides can prevent/attenuate the adverse effects of burn injury on mitochondrial dysfunction and ER stress. The redox state of the gastrocnemius muscle immediately below a local cutaneous burn (90° for 3 sec) was evaluated by nitroxide EPR.
Next, the effect of SS-31 peptide treatment administered IP 30 min before burn, and immediately after burn (3 mg/kg each dose) was tested.
as §1
EPR spectroscopy is described in detail in Khan et al. “Burn Trauma in skeletal muscle results in oxidative stress as assessed by in vivo electron paramagnetic resonance.” Mol Med Reports 1: 813-819 (2008). Briefly, mice were randomized into burn, burn+SS-31 peptide and control groups. The SS-31 peptide (3 mg/kg) was injected intraperitoneally at 0, 3, 6, 24, and 48 hours post-burn. EPR measurements were carried out with a 1.2-GHz EPR spectrometer equipped with a microwave bridge and external loop resonator specially designed for in vive experiments. The optimal spectrometer parameters were: incident microwave power, 10 mW; magnetic field center, 400 gauss; modulation frequency, 27 kHz. The decay kinetics of intravenously-injected nitroxide (150 mg/kg) were measured at the various time points, which indicated the mitochondrial redox status of the muscle.

protein oxidation = assay: Liver protein oxidation by western blot (Example 2); type: in vivo, mouse; conditions: C57BL mice, 30% TBSA burn, 5 mg/kg daily
Text: FIG. 7 is a photograph of a western blot analysis showing protein oxidation from the various treatment groups of Example 2.
as §4

UCP-1 = UCP-1 expression in brown adipose tissue by Western blot (Example 7); type: in vivo, rat; conditions: rats, III degree 30% TBSA burns; 2 mg/kg priming then 4 mg/kg/day infused 7 days; p=0.057
Description: as §3

caspase-3 [7] = assay: Liver caspase activity by an enzymatic reaction assay (Example 2); type: in vivo, mouse; conditions: C57BL mice, 30% TBSA burn, 5 mg/kg daily
Text: FIG. 6 is a graph showing caspase-3 activity from the various treatment groups of Example 2.
as §4

Sprague-Dawley rats = assay: Wound contraction after burn injury, area of the scab (Example 3); type: in vivo, rat; conditions: 65° C. water 25 sec, 1 mg IP one hour prior to burn, 1 mg topical, 1 mg IP every 12 h for 72 h, time points ≧8 days post-burn, p=0.06 by ANOVA
Description: Sprague-Dawley rats (male, 300-350 g) were pre-treated with 1 mg SS-31 peptide administered IP (this corresponds to about 3 mg/kg) one hour prior to burn (65° C. water for 25 sec on the lower back), followed by topical treatment (1 mg on top of the wound), and 1 mg SS-31 peptide administered IP every 12 h for 72 h. Wounds were observed up to ˜3 weeks post-burn. In general, the wounds took the appearance of a hard scab, and for the purpose of this experiment, the area of the scab was quantified as a measure of wound size. […] Treatment with SS-31 slowed the wound contraction, which indicates the burn injury was less severe compared to burns in animals without the peptide treatment. As such, the aromatic-cationic peptides of the invention are useful in methods of treating wounds associated with a burn injury.

mitochondrial aconitase = assay: Mitochondrial aconitase activity in 5% TBSA mice burn model (Example 9); type: in vivo, mouse; conditions: burned animals
Text: Mitochondrial aconitase is part of the TCA cycle and its activity has been directly correlated with the TCA flux. Moreover, its activity is inhibited by ROS and thus it is considered as an index of oxidative stress. Here we present the local and systematic effects of burn on the mitochondrial aconitase activity using a 5% TBSA mice burn model. The effects of a mitochondrial peptide (SS-31) had been also examined.

[8] = Controls + Peptide (n = 5), unburned CD1 mice, 3 mg/kg IP two injections
[9] = 3-5% TBSA burn, 3 mg/kg IP, 6 h after burn, p<0.05, 3 mg/kg

D-Arg-2′,6′-dimethyltyrosine-Lys-Phe-NH2 [SS-31]
PCr ([1]; Burn + Peptide (n = 8), 3 mg/kg IP 30 min prior to burn and immediately after the burn): 3.25 ± 0.29 µmol/g
ATP synthesis rate (reaction PCr → γATP) [1, 8]: 0.50 ± 0.06 µmol/g/s
PCr [1, 8]: 3.76 ± 0.51 µmol/g
Pi ([2]; Burn + Peptide (n = 8), 3 mg/kg IP 30 min before burn and immediately after burn, 6 hours after burn): 2.93 ± 0.56 µmol/g
Pi ([2]; Burn + Peptide* (n = 8), only one dose 3 mg/kg immediately after burn): 1.41 ± 0.26 µmol/g
Pi [2, 8]: 5.49 ± 0.28 µmol/g
VO2, BPep group compared to BSal group (Sprague Dawley rats [3]; p<0.01): significantly attenuated
VCO2, BPep group compared to BSal group (Sprague Dawley rats [3]; p<0.05): significantly attenuated
energy expenditure, BPep group compared to BSal group (Sprague Dawley rats [3]; p<0.05): significantly attenuated
activated form of caspase-3 protein levels in liver (caspase-3 [4]): reversed the increase in the activated form of caspase-3 protein levels on day 3 and 7 post-burn to the levels similar to those of sham control animals
number of liver cells undergoing apoptosis (TUNEL) (apoptosis in the liver): minimized the number of cells undergoing apoptosis
RER (Sprague Dawley rats [5]): 0.669 ± 0.005
redox status of burn+peptide group as compared to burn (EPR) [6, 9]: significant increase (recovery) in the redox status
redox status of burn+peptide group as compared to control (EPR) [6, 9]: significant decrease in the redox status
rate of nitroxide reduction in gastrocnemius muscle ([6]; local burn, 3 mg/kg IP 30 min before burn and immediately after burn, 6 h timepoint): significantly increased the rate of nitroxide reduction
protein oxidation following burn injury (protein oxidation): decreased protein oxidation
UCP-1 expression in brown adipose tissue, decrease in BPep group compared to BSal group (UCP-1): 32%
caspase activity in liver (caspase-3 [7]; day 3): trend for the increased caspase activity following burn injury to reverse
caspase activity in liver (caspase-3 [7]; post-burn day 7): reduced the caspase activity to a level that was statistically not different from that of sham control group
rate of wound contraction (area of the scab) (Sprague-Dawley rats): slower rate of wound contraction
mitochondrial aconitase activity (mitochondrial aconitase): decreased mitochondrial aconitase activity up to the control levels
